Test results: patent US20260028326A1, “COMPOUND BASED ON ISOINDOLINE-SUBSTITUTED GLUTARIMIDE BACKBONE AND USE THEREOF” (GLUETACS THERAPEUTICS (SHANGHAI) CO., LTD., priority 2022, published 2026)

What follows are compounds tested against human Cereblon WT GST-tagged protein (Homo sapiens (Human), UniProt Q96SW2) (assay: CRBN-binding affinity, HTRF (CEREBLON BINDING kit)).
Protocol: The CEREBLON BINDING kits (specification: 10,000 tests; product number: Catalog #64BDCRBNPEH; CISBIO company) was used to determine the CRBN binding ability of the compounds to be tested through a HTRF method (homogeneous time-resolved fluorescence). The specific methods are as follows: • 1. […] Then, 2.5 μL of human Cereblon WT GST-tagged protein solution was added to each well. Finally, 5 μL of the thoroughly mixed Thalidomide-Re reagent and GST Eu antibody working solution were added to each of the aforementioned wells. […] The blank control wells were sequentially added with 2.5 μL of diluent #9 (1×) solution, 2.5 μL of PROTAC binding buffer, and 5 μL of thoroughly mixed Thalidomide-Re reagent and GST Eu antibody working solution. • 4.
The corresponding CRBN binding inhibition rate was calculated using the following method: […]

Sequence of human Cereblon WT GST-tagged protein (Q96SW2 whole entry): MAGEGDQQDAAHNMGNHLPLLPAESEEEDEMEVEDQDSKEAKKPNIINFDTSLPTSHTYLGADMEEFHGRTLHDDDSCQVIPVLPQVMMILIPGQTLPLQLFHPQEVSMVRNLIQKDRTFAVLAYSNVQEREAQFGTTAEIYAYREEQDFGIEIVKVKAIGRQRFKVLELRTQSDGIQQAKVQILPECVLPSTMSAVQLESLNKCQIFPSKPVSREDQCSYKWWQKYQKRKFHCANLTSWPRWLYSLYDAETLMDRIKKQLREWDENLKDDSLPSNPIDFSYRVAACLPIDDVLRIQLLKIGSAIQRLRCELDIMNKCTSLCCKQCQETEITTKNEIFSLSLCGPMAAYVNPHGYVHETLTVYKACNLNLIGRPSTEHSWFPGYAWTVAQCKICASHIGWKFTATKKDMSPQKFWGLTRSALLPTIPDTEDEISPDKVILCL

Row | IC50 | Structure (SMILES)
1 | 440 nM | CC1(C)CCC(CN2CC3CC2CN3C(=O)c2ccc3c(c2)CN(C2CCC(=O)NC2=O)C3=O)=C(c2ccc(F)cc2)C1 (stereo not shown) [GT-05452, 3-(5-(5-((4′-fluoro-5,5-dimethyl-3,4,5,6-tetrahydro-[1,1′-biphenyl]-2-yl)methyl)-2,5-diazabicyclo[2.2.1]heptane-2-carbonyl)-1-oxoisoindolin-2-yl)piperidine-2,6-dione]
2 | 710 nM | CC1(C)CCC(CN2CC3CCC2CN3Cc2cc(F)c3c(c2)CN(C2CCC(=O)NC2=O)C3=O)=C(c2ccc(Cl)cc2)C1 (stereo not shown) [GT-05781, 3-(5-((5-((4′-chloro-5,5-dimethyl-3,4,5,6-tetrahydro-[1,1′-biphenyl]-2-yl)methyl)-2,5-diazabicyclo[2.2.2]octan-2-yl)methyl)-7-fluoro-1-oxoisoindolin-2-yl)piperidine-2,6-dione]
3 | 490 nM | CC1(C)CCC(CN2CCN(Cc3ccc4c(c3)C(=O)N(C3CCC(=O)NC3=O)C4)CC2)=C(c2ccc(F)cc2)C1 (stereo not shown) [GT-05394, 3-(6-((4-((4′-fluoro-5,5-dimethyl-3,4,5,6-tetrahydro-[1,1′-biphenyl]-2-yl)methyl)piperazin-1-yl)methyl)-1-oxoisoindolin-2-yl)piperidine-2,6-dione]
4 | 600 nM | CC1(C)CCC(C(=O)N2CC(Cc3ccc4c(c3)CN(C3CCC(=O)NC3=O)C4=O)C2)=C(c2ccc(F)cc2)C1 (stereo not shown) [GT-05488, 3-(5-((1-(4′-fluoro-5,5-dimethyl-3,4,5,6-tetrahydro-[1,1′-biphenyl]-2-carbonyl)azetidin-3-yl)methyl)-1-oxoisoindolin-2-yl)piperidine-2,6-dione]
5 | 360 nM | O=C1CCC(N2Cc3cc(C(O)C4(O)CN(C(=O)c5ccccc5-c5ccc(Cl)cc5)C4)ccc3C2=O)C(=O)N1 (stereo not shown) [GT-05484, 3-(5-((1-(4′-chloro-[1,1′-biphenyl]-2-carbonyl)-3-hydroxyazetidin-3-yl)(hydroxy)methyl)-1-oxoisoindolin-2-yl)piperidine-2,6-dione]
6 | 720 nM | CC1(C)CCC(C(=O)N2CC(Cc3ccc4c(c3)CN(C3CCC(=O)NC3=O)C4=O)C2)=C(c2ccc(Cl)cc2)C1 (stereo not shown) [GT-05419, 3-(5-((1-(4′-chloro-5,5-dimethyl-3,4,5,6-tetrahydro-[1,1′-biphenyl]-2-carbonyl)azetidin-3-yl)methyl)-1-oxoisoindolin-2-yl)piperidine-2,6-dione]
7 | 440 nM | O=C1CCC(N2Cc3cc(-c4ccc(CN5CCN(C(=O)c6ccccc6-c6ccc(Cl)cc6)CC5)cc4)ccc3C2=O)C(=O)N1 (stereo not shown) [GT-05874, 3-(5-(4-((4-(4′-chloro-[1,1′-biphenyl]-2-carbonyl)piperazin-1-yl)methyl)phenyl)-1-oxoisoindolin-2-yl)piperidine-2,6-dione]
8 | 440 nM | CC1(C)CCC(CN2CCN(Cc3cc(F)c4c(c3)CN(C3CCC(=O)NC3=O)C4=O)CC2)=C(c2ccc(F)cc2)C1 (stereo not shown) [GT-05392, 3-(7-fluoro-5-((4-((4′-fluoro-5,5-dimethyl-3,4,5,6-tetrahydro-[1,1′-biphenyl]-2-yl)methyl)piperazin-1-yl)methyl)-1-oxoisoindolin-2-yl)piperidine-2,6-dione]
9 | 590 nM | O=C1CCC(N2Cc3cc(CN4CC5CCC4CN5Cc4ccccc4-c4ccc(Cl)cc4)ccc3C2=O)C(=O)N1 (stereo not shown) [GT-05619, 3-(5-((5-((4′-chloro-[1,1′-biphenyl]-2-yl)methyl)-2,5-diazabicyclo[2.2.2]octan-2-yl)methyl)-1-oxoisoindolin-2-yl)piperidine-2,6-dione]
10 | 1240 nM | CC1(C)CCC(CN2CCCN(C(=O)c3ccc4c(c3)CN(C3CCC(=O)NC3=O)C4=O)CC2)=C(c2ccc(Cl)cc2)C1 (stereo not shown) [GT-05453, 3-(5-(4-((4′-chloro-5,5-dimethyl-3,4,5,6-tetrahydro-[1,1′-biphenyl]-2-yl)methyl)-1,4-diazepane-1-carbonyl)-1-oxoisoindolin-2-yl)piperidine-2,6-dione]
11 | 950 nM | CC1(C)CCC(CN2CC(O)(C(O)c3ccc4c(c3)CN(C3CCC(=O)NC3=O)C4=O)C2)=C(c2ccc(Cl)cc2)C1 (stereo not shown) [GT-05427, 3-(5-((1-((4′-chloro-5,5-dimethyl-3,4,5,6-tetrahydro-[1,1′-biphenyl]-2-yl)methyl)-3-hydroxyazetidin-3-yl)(hydroxy)methyl)-1-oxoisoindolin-2-yl)piperidine-2,6-dione]
12 | 200 nM | O=C1CCC(N2Cc3cc(NC4CN(C(=O)c5ccccc5-c5ccc(Cl)cc5)C4)ccc3C2=O)C(=O)N1 (stereo not shown) [GT-04397, 3-(5-((1-(4′-chloro-[1,1′-biphenyl]-2-carbonyl)azetidin-3-yl)amino)-1-oxoisoindolin-2-yl)piperidine-2,6-dione]
13 | 1400 nM | O=C1CCC(N2Cc3cc(NC4CCN(Cc5ccccc5-c5ccc(Cl)cc5)CC4)ccc3C2=O)C(=O)N1 (stereo not shown) [GT-03877, 3-(5-((1-((4′-chloro-[1,1′-biphenyl]-2-yl)methyl)piperidin-4-yl)amino)-1-oxoisoindolin-2-yl)piperidine-2,6-dione]
14 | 1500 nM | O=C1CCC(N2C(=O)c3ccc(CN4CCN(C(=O)C5=C(c6ccc(F)cc6)CCCC5)CC4)cc3C2=O)C(=O)N1 (stereo not shown) [GT-05468, 2-(2,6-dioxopiperidin-3-yl)-5-((4-(4′-fluoro-3,4,5,6-tetrahydro-[1,1′-biphenyl]-2-carbonyl)piperazin-1-yl)methyl)isoindoline-1,3-dione]
15 | 240 nM | CC1(C)CCC(CN2C[C@H]3C[C@@H]2CN3Cc2ccc3c(c2F)CN(C2CCC(=O)NC2=O)C3=O)=C(c2ccc(Cl)cc2)C1 (stereo partly drawn) [GT-03888, 3-(5-(((1R,4R)-5-((4′-chloro-5,5-dimethyl-3,4,5,6-tetrahydro-[1,1′-biphenyl]-2-yl)methyl)-2,5-diazabicyclo[2.2.1]heptan-2-yl)methyl)-4-fluoro-1-oxoisoindolin-2-yl)piperidine-2,6-dione]
16 | 500 nM | CC1(C)CCC(C(=O)N2CC3CN(Cc4ccc5c(c4)CN(C4CCC(=O)NC4=O)C5=O)CC3C2)=C(c2ccc(F)cc2)C1 (stereo not shown) [GT-05405, 3-(5-((5-(4′-fluoro-5,5-dimethyl-3,4,5,6-tetrahydro-[1,1′-biphenyl]-2-carbonyl)hexahydropyrrolo[3,4-c]pyrrol-2(1H)-yl)methyl)-1-oxoisoindolin-2-yl)piperidine-2,6-dione]
17 | 470 nM | O=C1CCC(N2Cc3cc(CN4CCC(Nc5ccccc5-c5ccc(Cl)cc5)CC4)ccc3C2=O)C(=O)N1 (stereo not shown) [GT-03991, 3-(5-((4-((4′-chloro-[1,1′-biphenyl]-2-yl)amino)piperidin-1-yl)methyl)-1-oxoisoindolin-2-yl)piperidine-2,6-dione]
18 | 540 nM | CC1(C)CCC(C(=O)N2CCC(Cc3ccc4c(c3)CN(C3CCC(=O)NC3=O)C4=O)CC2)=C(c2ccc(Cl)cc2)C1 (stereo not shown) [GT-05418, 3-(5-((1-(4′-chloro-5,5-dimethyl-3,4,5,6-tetrahydro-[1,1′-biphenyl]-2-carbonyl)piperidin-4-yl)methyl)-1-oxoisoindolin-2-yl)piperidine-2,6-dione]
19 | 520 nM | O=C1CCC(N2C(=O)c3ccc(N4CC5CCC4CN5Cc4ccccc4-c4ccc(Cl)cc4)cc3C2=O)C(=O)N1 (stereo not shown) [GT-05374, 5-(5-((4′-chloro-[1,1′-biphenyl]-2-yl)methyl)-2,5-diazabicyclo[2.2.2]octan-2-yl)-2-(2,6-dioxopiperidin-3-yl)isoindoline-1,3-dione]
20 | 660 nM | CC1(C)CCC(C(=O)N2CC3CN(C(=O)c4ccc5c(c4)CN(C4CCC(=O)NC4=O)C5=O)CC3C2)=C(c2ccc(Cl)cc2)C1 (stereo not shown) [GT-05659, 3-(5-(5-(4′-chloro-5,5-dimethyl-3,4,5,6-tetrahydro-[1,1′-biphenyl]-2-carbonyl)octahydropyrrolo[3,4-c]pyrrole-2-carbonyl)-1-oxoisoindolin-2-yl)piperidine-2,6-dione]

Row | Structure (SMILES) | IC50
21 | O=C1CCC(N2Cc3cc(CN4CC5CC(C4)N5C(=O)c4ccccc4-c4ccc(Cl)cc4)ccc3C2=O)C(=O)N1 (stereo not shown) [GT-05669, 3-(5-((6-(4′-chloro-[1,1′-biphenyl]-2-carbonyl)-3,6-diazabicyclo[3.1.1]heptan-3-yl)methyl)-1-oxoisoindolin-2-yl)piperidine-2,6-dione] | 630 nM
22 | CC1(C)CCC(CN2C3CC2CN(c2ccc4c(c2)C(=O)N(C2CCC(=O)NC2=O)C4=O)C3)=C(c2ccc(Cl)cc2)C1 (stereo not shown) [GT-05378, 5-(6-((4′-chloro-5,5-dimethyl-3,4,5,6-tetrahydro-[1,1′-biphenyl]-2-yl)methyl)-3,6-diazabicyclo[3.1.1]heptan-3-yl)-2-(2,6-dioxopiperidin-3-yl)isoindoline-1,3-dione] | 1770 nM
23 | CC1(C)CCC(C(=O)N2CC3CC(C2)N3C(=O)c2ccc3c(c2)CN(C2CCC(=O)NC2=O)C3=O)=C(c2ccc(Cl)cc2)C1 (stereo not shown) [GT-05538, 3-(5-(3-(4′-chloro-5,5-dimethyl-3,4,5,6-tetrahydro-[1,1′-biphenyl]-2-carbonyl)-3,6-diazabicyclo[3.1.1]heptane-6-carbonyl)-1-oxoisoindolin-2-yl)piperidine-2,6-dione] | 1020 nM
24 | CC1(C)CCC(CN2CC3CCC(C2)N3C(=O)c2ccc3c(c2)CN(C2CCC(=O)NC2=O)C3=O)=C(c2ccc(Cl)cc2)C1 (stereo not shown) [GT-05458, 3-(5-(3-((4′-chloro-5,5-dimethyl-3,4,5,6-tetrahydro-[1,1′-biphenyl]-2-yl)methyl)-3,8-diazabicyclo[3.2.1]octane-8-carbonyl)-1-oxoisoindolin-2-yl)piperidine-2,6-dione] | 1410 nM
25 | CC1(C)CCC(CN2C3CC2CN(C(=O)c2ccc4c(c2)CN(C2CCC(=O)NC2=O)C4=O)C3)=C(c2ccc(F)cc2)C1 (stereo not shown) [GT-05671, 3-(5-(6-((4′-fluoro-5,5-dimethyl-3,4,5,6-tetrahydro-[1,1′-biphenyl]-2-yl)methyl)-3,6-diazabicyclo[3.1.1]heptane-3-carbonyl)-1-oxoisoindolin-2-yl)piperidine-2,6-dione] | 300 nM
